Measurements from patent publication US8980906B2, “Pyridonemorphinan analogs and biological activity on opioid receptors” (Purdue Pharma L.P., priority 2012, dated 2015).
Read-outs that look alike come from different tables or passages of the source.

How the values were obtained:
κ-opioid receptor [1] = target: T1, κ-opioid receptor (Homo sapiens (Human), UniProt P41145); assay: κ-opioid receptor radioligand dose-displacement binding assay ([3H]-U69,593); conditions: binding affinity, [3H]-U69,593 displacement
Experimental: κ-Opioid Receptor Binding Assay Procedures: Membranes from HEK-293 cells, CHO or U-2 OS cells expressing the recombinant human kappa opioid receptor (κ) were prepared by lysing cells in ice cold hypotonic buffer (2.5 mM MgCl2, 50 mM HEPES, pH 7.4) (10 mL/10 cm dish) followed by homogenization with a tissue grinder/Teflon pestle. Membranes were collected by centrifugation at 30,000×g for 15 min at 4° C. and pellets were resuspended in hypotonic buffer to a final concentration of 1-3 mg/mL. Protein concentrations were determined using the BioRad protein assay reagent with bovine serum albumen as standard, Aliquots of κ receptor membranes were stored at […].
Radioligand dose displacement assays used 0.4 nM [^3H]-U69,593 (GE Healthcare, Piscataway, N.J.; 40 Ci/mmole) with 15 μg membrane protein (recombinant κ opioid receptor expressed in HEK 293 cells; in-house prep) in a final volume of 200 μl binding buffer (5% DMSO, 50 mM Trizma base, pH 7.4). Non-specific binding was determined in the presence of 10 μM unlabeled naloxone or U69,593. All reactions were performed in 96-well polypropylene plates for 1 hour at a temperature of about 25° C. Binding reactions were terminated by rapid filtration onto 96-well Unifilter GF/C filter plates (Perkin Elmer, Shelton, Conn.) presoaked in 0.5% polyethylenimine (Sigma). Harvesting was performed using a 96-well tissue harvester (Perkin Elmer, Shelton, Conn.) followed by five filtration washes with 200 μl ice-cold binding buffer. Filter plates were subsequently dried at 50° C. for 1-2 hours. Fifty μl/well scintillation cocktail (Perkin Elmer, Shelton, Conn.) was added and plates were counted in a Packard Top-Count for 1 min/well.

μ-opioid receptor [2] = target: T2, μ-opioid receptor (Homo sapiens (Human), UniProt P35372); assay: μ-opioid receptor [35S]GTPγS functional assay, HEK-293 or CHO cells; assay type: biochemical
Experimental: μ-Opioid Receptor Functional Assay Procedures: [^35S]GTPγS functional assays were conducted using freshly thawed μ-receptor membranes prepared in-house from a cell line expressing recombinant μ opioid receptor in a HEK-293, CHO or U-2 OS cell background, or purchased from a commercial source (Perkin Elmer, Shelton, Conn.; or DiscovRx, Fremont, Calif.). Assay reactions were prepared by sequentially adding the following reagents to binding buffer (100 mM NaCl, 10 mM MgCl2, 20 mM HEPES, pH 7.4) on ice (final concentrations indicated): membrane protein (0.026 mg/mL), saponin ([…]), GDP ([…]) and [^35S]GTPγS (0.20 nM; Perkin Elmer, Shelton, Conn.). The prepared membrane solution (190 μl/well) was transferred to 96-shallow well polypropylene plates containing 10 μl of 20× concentrated stock solutions of the agonist [D-Ala^2, N-methyl-Phe^4 Gly-ol^5]-enkephalin (DAMGO) prepared in dimethyl sulfoxide (DMSO). Plates were incubated for 30 min at about 25° C. with shaking. Reactions were terminated by rapid filtration onto 96-well Unifilter GF/B filter plates (Perkin Elmer, Shelton, Conn.) using a 96-well tissue harvester (Perkin Elmer, Shelton, Conn.) followed by three filtration washes with 200 μl of ice-cold wash buffer (10 mM NaH2PO4, 10 mM Na2HPO4, pH 7.4). Filter plates were subsequently dried at 50° C. for 2-3 hours. BetaScint scintillation cocktail (Perkin Elmer, Shelton, Conn.) was added (50 μl/well) and plates were counted using a Packard Top-Count for 1 min/well. Data were analyzed using the sigmoidal dose-response curve fitting functions in GraphPad PRISM v. 3.0, or an in-house function for non-linear, sigmoidal dose-response curve-fitting.
μ-Opioid Receptor Functional Data: μ GTP EC50 is the concentration of a compound providing 50% of the maximal response for the compound at a μ-opioid receptor.
μ GTP Emax (%) is the maximal effect elicited by a compound relative to the effect elicited by DAMGO, a standard μ agonist. Generally, the μ GTP Emax (%) value measures the efficacy of a compound to treat or prevent pain or other Conditions.
(§1) In TABLE 2, activity response of certain Compounds of the Invention to the μ-, δ- and κ-opioid receptors was determined as described above for functional assays using HEK-293 or CHO cells.

κ-opioid receptor [3] = target: T1, κ-opioid receptor; assay: κ-opioid receptor [35S]GTPγS functional assay, HEK-293 or CHO cells; assay type: biochemical
Experimental: κ-Opioid Receptor Functional Assay Procedures: Functional [^35S]GTPγS binding assays were conducted as follows. κ opioid receptor membrane solution was prepared by sequentially adding final concentrations of 0.026 μg/μl κ membrane protein (in-house), 10 μg/mL saponin, 3 μM GDP and 0.20 nM [^35S]GTPγS to binding buffer (100 mM NaCl, 10 mM MgCl2, 20 mM HEPES, pH 7.4) on ice. The prepared membrane solution (190 μl/well) was transferred to 96-shallow well polypropylene plates containing 10 μl of 20× concentrated stock solutions of agonist prepared in DMSO. Plates were incubated for 30 min at a temperature of about 25° C. with shaking. Reactions were terminated by rapid filtration onto 96-well Unifilter GF/B filter plates (Perkin Elmer, Shelton, Conn.) using a 96-well tissue harvester (Packard) and followed by three filtration washes with 200 μl ice-cold binding buffer (10 mM NaH2PO4, 10 mM Na2HPO4, pH 7.4). Filter plates were subsequently dried at 50° C. for 2-3 hours. Fifty μl/well scintillation cocktail (Perkin Elmer, Shelton, Conn.) was added and plates were counted in a Packard Top-Count for 1 min/well.
κ-Opioid Receptor Functional Data: κ GTP EC50 is the concentration of a compound providing 50% of the maximal response for the compound at a κ receptor.
κ GTP Emax (%) is the maximal effect elicited by a compound relative to the effect elicited by U69,593.
as §1

μ-opioid receptor [4] = target: T2, μ-opioid receptor; assay: μ-opioid receptor radioligand dose-displacement binding assay ([3H]-diprenorphine); conditions: binding affinity
Experimental: μ-Opioid Receptor Binding Assay Procedures: Radioligand dose-displacement binding assays for μ-opioid receptors used 0.3 nM [^3H]-diprenorphine (Perkin Elmer, Shelton, Conn.), with […] membrane protein/well in a final volume of 500 μl binding buffer (10 mM MgCl2, 1 mM EDTA, 5% DMSO, 50 mM HEPES, pH 7.4). Reactions were carried out in the absence or presence of increasing concentrations of unlabeled naloxone. All reactions were conducted in 96-deep well polypropylene plates for 2 hours at room temperature. Binding reactions were terminated by rapid filtration onto 96-well Unifilter GF/C filter plates (Perkin Elmer, Shelton, Conn.), presoaked in 0.5% polyethylenimine using a 96-well tissue harvester (Perkin Elmer, Shelton, Conn.) followed by performing three filtration washes with 500 μl of ice-cold binding buffer. Filter plates were subsequently dried at 50° C. for 2-3 hours. BetaScint scintillation cocktail (Perkin Elmer, Shelton, Conn.) was added (50 μl/well), and plates were counted using a Packard Top-Count for 1 min/well. The data were analyzed using the one-site competition curve fitting functions in GraphPad PRISM™ v. 3.0 or higher (San Diego, Calif.), or an in-house function for one-site competition curve-fitting.

[5] = relative to U69,593, HEK-293 or CHO cells
[6] = relative to DAMGO, HEK-293 or CHO cells
[7] = [3H]-diprenorphine displacement, read-out: Ki (nM) Opioid Receptor μ

SMILES	Ki (κ-opioid receptor [1]) [nM]	EC50 (μ-opioid receptor [2]) [nM]	EC50 (κ-opioid receptor [3]) [nM]	other results
COc1ccc2c(c1)[C@]13CCN(CC4CC4)[C@H](C2)[C@]1(O)Cc1cc(C(N)=O)c(=O)[nH]c1C3 [Compound 4, (6R,6aS,12aR)-15-(cyclopropylmethyl)-6a-hydroxy-2-methoxy-10-oxo-6,6a,7,10,11,12-hexahydro-5H-6,12a-(epiminoethano)naphtho[2,1-g]quinoline-9-carboxamide]	292 ± 17	> 20000	5380 ± 489	Emax (κ-opioid receptor [3]; [5]): 39.7 ± 5.78%
COc1ccc2c(c1)[C@]13CCN(CC4CC4)[C@H](C2)[C@@H]1Cc1cc(C(N)=O)c(=O)[nH]c1C3 [Compound 6, (6R,6aR,12aS)-15-(cyclopropylmethyl)-2-methoxy-10-oxo-6,6a,7,10,11,12-hexahydro-5H-6,12a-(epiminoethano)naphtho[2,1-g]quinoline-9-carboxamide]	35.7 ± 2.74	528 ± 121	2980 ± 587	Emax (μ-opioid receptor [2]; [6]): 19.7 ± 2.02%; Emax (κ-opioid receptor [3]; [5]): 59.3 ± 2.33%
COc1ccc2c(c1)[C@]13CCN(CC4CC4)[C@H](C2)[C@@H]1Cc1cc(C(=O)O)c(=O)[nH]c1C3 [Compound 10, (6R,6aR,12aS)-15-(cyclopropylmethyl)-2-methoxy-10-oxo-6,6a,7,10,11,12-hexahydro-5H-6,12a-(epiminoethano)naphtho[2,1-g]quinoline-9-carboxylic acid]	183 ± 23.3			EC50 (μ-opioid receptor [2]; GTPγS, HEK-293 or CHO cells, read-out: μ EC50): 225 ± 89.6 nM; μ Emax (%) (μ-opioid receptor [2]; [6]): 25.67 ± 0.88%; EC50 (κ-opioid receptor [3]; GTPγS, HEK-293 or CHO cells, read-out: κ EC50): 3490 ± 636 nM; κ Emax (%) (κ-opioid receptor [3]; [5]): 37.75 ± 1.70%
NC(=O)CNC(=O)c1cc2c([nH]c1=O)C[C@]13CCN(CC4CC4)[C@H](Cc4ccc(O)cc41)[C@]3(O)C2 [Compound 14, (6R,6aS,12aR)—N-(2-amino-2-oxoethyl)-15-(cyclopropylmethyl)-2,6a-dihydroxy-10-oxo-6,6a,7,10,11,12-hexahydro-5H-6,12a-(epiminoethano)naphtho[2,1-g]quinoline-9-carboxamide]	1.53 ± 0.26	> 20000	> 20000	
C[C@H](NC(=O)c1cc2c([nH]c1=O)C[C@]13CCN(CC4CC4)[C@H](Cc4ccc(O)cc41)[C@]3(O)C2)C(N)=O [Compound 16]	1.05 ± 0.22	6.44 ± 0.41	> 20000	Emax (μ-opioid receptor [2]; [6]): 14.7 ± 3.28%
NC(=O)[C@H](Cc1ccccc1)NC(=O)c1cc2c([nH]c1=O)C[C@]13CCN(CC4CC4)[C@H](Cc4ccc(O)cc41)[C@]3(O)C2 [Compound 17, (6R,6aS,12aR)—N—((S)-1-amino-1-oxo-3-phenylpropan-2-yl)-15-(cyclopropylmethyl)-2,6a-dihydroxy-10-oxo-6,6a,7,10,11,12-hexahydro-5H-6,12a-(epiminoethano)naphtho[2,1-g]quinoline-9-carboxamide]	0.85 ± 0.15	> 20000	> 20000	Emax (μ-opioid receptor [2]; [6]): -0.33 ± 0.67%
NC(=O)[C@@H]1CCCN1C(=O)c1cc2c([nH]c1=O)C[C@]13CCN(CC4CC4)[C@H](Cc4ccc(O)cc41)[C@]3(O)C2 [Compound 19, (S)-1-((6R,6aS,12aR)-15-(cyclopropylmethyl)-2,6a-dihydroxy-10-oxo-6,6a,7,10,11,12-hexahydro-5H-6,12a-(epiminoethano)naphtho[2,1-g]quinoline-9-carbonyl)pyrrolidine-2-carboxamide]	0.97 ± 0.23	> 20000	> 20000	
NC(=O)C[C@H](NC(=O)c1cc2c([nH]c1=O)C[C@]13CCN(CC4CC4)[C@H](Cc4ccc(O)cc41)[C@]3(O)C2)C(N)=O [Compound 20, (S)-2-((6R,6aS,12aR)-15-(cyclopropylmethyl)-2,6a-dihydroxy-10-oxo-6,6a,7,10,11,12-hexahydro-5H-6,12a-(epiminoethano)naphtho[2,1-g]quinoline-9-carboxamido)succinamide]	2.59 ± 0.99	> 20000	> 20000	
COC(=O)c1cc2c([nH]c1=O)C[C@]13CCN(C)[C@H](Cc4ccc(OC)cc41)[C@]3(O)C2 [Compound 27, (6R,6aS,12aR)-methyl 15-(methyl)-6a-hydroxy-2-methoxy-10-oxo-6,6a,7,10,11,12-hexahydro-5H-6,12a-(epiminoethano)naphtho[2,1-g]quinoline-9-carboxylate]	3080 ± 128			Ki (μ-opioid receptor [4]; bound given in μM, read-out: Ki Opioid Receptor μ): > 20 µM
COc1ccc2c(c1)[C@]13CCN(C)[C@H](C2)[C@]1(O)Cc1cc(C(N)=O)c(=O)[nH]c1C3 [Compound 28, (6R,6aS,12aR)-15-(methyl)-6a-hydroxy-2-methoxy-10-oxo-6,6a,7,10,11,12-hexahydro-5H-6,12a-(epiminoethano)naphtho[2,1-g]quinoline-9-carboxamide]	12300			Ki (μ-opioid receptor [4]; [7]): 14.4 ± 4.14 µM
CN1CC[C@]23Cc4[nH]c(=O)c(C(N)=O)cc4C[C@@]2(O)[C@H]1Cc1ccc(O)cc13 [Compound 29, (6R,6aS,12aR)-15-(methyl)-2,6a-dihydroxy-10-oxo-6,6a,7,10,11,12-hexahydro-5H-6,12a-(epiminoethano)naphtho[2,1-g]quinoline-9-carboxamide]	25.3 ± 4.86			Ki (μ-opioid receptor [4]; [7]): 0.651 ± 0.101 µM
